Laboratory results reported in US20040132803A1, “Agent for the treatment of overactive bladder” (priority 2003, published 2004).

Experiments:
[1] = test system: delayed rectifier K^+ currents; assay: Voltage-clamp outward K^+ currents at HP −20 mV in unidentified DRG neurons; type: cell-based, rat; conditions: for K^+ current at HP: −20 mV, relative value (before compound = 1): unidentified DRG neurons
Description: Experiments were performed on adult female Sprague Dawley rats. First and second series of the experiments were performed, respectively, in unidentified DRG neurons and a specific population of DRG neurons innervating the urinary bladder. The population of DRG neurons that innervate the urinary bladder were labeled by retrograde axonal transport of the fluorescent dye, Fast Blue (4% w/v) (Polyloy, Gross Umstadt, Germany), injected into the wall of the bladder in halothane-anesthetized animals 7 days before the dissociation. The dye was injected with a 28 gauge needle at three to six sites on the dorsal surface of the organ (5-6 μL per site, total volume of 20-30 μL). Each injection site was washed with saline to minimize contamination of adjacent organs with the dye.
Freshly dissociated neurons from DRG were prepared from halothane-anesthetized animals. L6 and S1 DRG were dissected from animals and then dissociated in a shaking bath for 25 minutes at 35° C. with 5 mL DMEM (Sigma) containing 0.3 mg/mL trypsin (Type 3, Sigma), 1 mg/mL collagenase (Type 1, Sigma), and 0.1 mg/mL deoxyribonuclease (Type 4, Sigma). Trypsin inhibitor (Type 2a, Sigma) was then added thereto to neutralize the activity of trypsin. Individual DRG cell bodies were isolated by trituration and then plated on a poly-L-lysine-coated 35 mm Petri dishes.
Dye-labeled primary afferent neurons that innervate the urinary bladder were identified using an inverted phase-contrast microscope (Nikon, Tokyo, Japan) with fluorescent attachments (UV-1A filter; excitation wavelength, 365 nm). Gigaohm-seal whole-cell recordings were performed at room temperature (20-22° C.) on each labeled neuron in a culture dish that usually contained three to seven labeled cells among a few hundred unlabeled neurons. The internal solution contained (in mmol/L): KCl 140, CaCl2 1, MgCl2 2, EGTA 11, HEPES 10, Mg-ATP 2, and Tris-GTP 0.4 adjusted to pH 7.4 with KOH. Patch electrodes had resistances of 1-4 MΩ when filled with the internal solution. Neurons were superfused at a flow rate of 1.5 mL/minutes with an external solution containing (in mmol/L): NaCl 150, KCl 5, CaCl2 2.5, MgCl2 1, HEPES 10, and D-glucose 10, adjusted to pH 7.4 with NaOH. All recordings were made with an Axopatch-1D patch-clamp amplifier (Axon Instruments, Foster City, Calif.), and data were acquired and analyzed by PCLAMP software (Axon Instruments).
In voltage-clamp recordings, outward K^+ currents and inward Na^+ currents were measured. For the isolation of K^+ currents, the external solution was changed to one containing (in mmol/L): choline-Cl 150, KOH 5, CaCl2 0.03, HEPES 10, Mg(OH)2 3, and D-glucose 10, adjusted to pH 7.4 with HCl.
In first series of experiments using unidentified DRG neurons, outward K^+ currents were evoked by voltage steps to +60 mV, 800 ms long from a holding potentials of −90 mV, this was followed by a 1-second conditioning prepulse to −20 mV followed by a second pulse to +60 mV, identical to the first in the sequence. In the second series of experiments using Fast Blue-labeled bladder afferent neurons, slowly-inactivating A-type K^+ currents were isolated by. subtraction of outward K^+ currents activated from a holding potential of −40 mV (on the condition of inactivation of the majority of slowly-inactivating A-type K^+ currents) from those activated from a holding potential of −120 mV (on the condition of full activation of slowly-inactivating A-type K^+ currents). A compound was added cumulatively, starting with a lower concentration. Currents were measured at the maximum (peak) and normalized to control (before addition of the compound).

spinal cord-injured rats = assay: Inhibition of detrusor hyperreflexia, cystometry in spinal cord-injured rats; type: in vivo, rat
Text: Spinal cord injury was induced in rats.

[2] = 0.001 mg/kg p.o., after 3 hours
[3] = 0.001 mg/kg p.o., after 5 hours

C[C@](O)(C(=O)Nc1cccc2c1C(=O)c1sccc1CS2(=O)=O)C(F)(F)F [Compound 1, (S)-(+)-N-(5,5-dioxido-10-oxo-4,10-dihydrothieno[3,2-c][l]benzothiepin-9-yl)-3,3,3-trifluoro-2-hydroxy-2-methylpropanamide]
K^+ current at HP: −20 mV, relative value ([1]; 1.0 × 10^−5 mol/L, in the presence of 5 μmol/L verapamil): 1.00 ± 0.02 | K^+ current at HP: −20 mV, relative value ([1]; 1.0 × 10^−5 mol/L, in the presence of 20 mmol/L tetraethylammonium): 1.01 ± 0.02 | K^+ current at HP: −20 mV, relative value (before compound = 1) ([1]; 1.0 × 10^−5 mol/L): 0.88 ± 0.07 | K^+ current at HP: −20 mV, relative value ([1]; 1.0 × 10^−6 mol/L, in the presence of 5 μmol/L verapamil): 1.00 ± 0.01 | K^+ current at HP: −20 mV, relative value ([1]; 1.0 × 10^−6 mol/L, in the presence of 20 mmol/L tetraethylammonium): 1.00 ± 0.00 | K^+ current at HP: −20 mV, relative value (before compound = 1) ([1]; 1.0 × 10^−6 mol/L): 1.00 ± 0.02 | K^+ current at HP: −20 mV, relative value ([1]; 1.0 × 10^−7 mol/L, in the presence of 5 μmol/L verapamil): 1.00 ± 0.01 | K^+ current at HP: −20 mV, relative value ([1]; 1.0 × 10^−7 mol/L, in the presence of 20 mmol/L tetraethylammonium): 0.99 ± 0.02 | K^+ current at HP: −20 mV, relative value (before compound = 1) ([1]; 1.0 × 10^−7 mol/L): 1.02 ± 0.01 | K^+ current at HP: −20 mV, relative value (before compound = 1) ([1]; 1.0 × 10^−8 mol/L): 0.98 ± 0.04 | K^+ current at HP: −20 mV, relative value (before compound = 1) ([1]; 2.5 × 10^−8 mol/L): 1.01 ± 0.03 | K^+ current at HP: −20 mV, relative value ([1]; 5.0 × 10^−4 mol/L, in the presence of 5 μmol/L verapamil): 0.83 ± 0.06 | K^+ current at HP: −20 mV, relative value ([1]; 5.0 × 10^−4 mol/L, in the presence of 20 mmol/L tetraethylammonium): 0.25 ± 0.04 | K^+ current at HP: −20 mV, relative value ([1]; 5.0 × 10^−4 mol/L, in the presence of 60 mmol/L tetraethylammonium): 0.54 ± 0.02 | K^+ current at HP: −20 mV, relative value ([1]; 5.0 × 10^−5 mol/L, in the presence of 5 μmol/L verapamil): 0.98 ± 0.01 | K^+ current at HP: −20 mV, relative value ([1]; 5.0 × 10^−5 mol/L, in the presence of 20 mmol/L tetraethylammonium): 0.84 ± 0.06 | K^+ current at HP: −20 mV, relative value ([1]; 5.0 × 10^−5 mol/L, in the presence of 60 mmol/L tetraethylammonium): 0.95 ± 0.03 | K^+ current at HP: −20 mV, relative value (before compound = 1) ([1]; 5.0 × 10^−5 mol/L): 0.81 ± 0.08 | K^+ current at HP: −20 mV, relative value ([1]; 5.0 × 10^−6 mol/L, in the presence of 5 μmol/L verapamil): 1.01 ± 0.01 | K^+ current at HP: −20 mV, relative value ([1]; 5.0 × 10^−6 mol/L, in the presence of 20 mmol/L tetraethylammonium): 0.98 ± 0.01 | K^+ current at HP: −20 mV, relative value ([1]; 5.0 × 10^−6 mol/L, in the presence of 60 mmol/L tetraethylammonium): 0.97 ± 0.02 | K^+ current at HP: −20 mV, relative value ([1]; 5.0 × 10^−7 mol/L, in the presence of 5 μmol/L verapamil): 1.00 ± 0.01 | K^+ current at HP: −20 mV, relative value ([1]; 5.0 × 10^−7 mol/L, in the presence of 20 mmol/L tetraethylammonium): 1.01 ± 0.01 | K^+ current at HP: −20 mV, relative value ([1]; 5.0 × 10^−7 mol/L, in the presence of 60 mmol/L tetraethylammonium): 0.97 ± 0.03 | K^+ current at HP: −20 mV, relative value (before compound = 1) ([1]; 5.0 × 10^−7 mol/L): 1.01 ± 0.02 | K^+ current at HP: −20 mV, relative value ([1]; 5.0 × 10^−8 mol/L, in the presence of 5 μmol/L verapamil): 1.00 ± 0.00 | K^+ current at HP: −20 mV, relative value ([1]; 5.0 × 10^−8 mol/L, in the presence of 20 mmol/L tetraethylammonium): 0.99 ± 0.01 | K^+ current at HP: −20 mV, relative value ([1]; 5.0 × 10^−8 mol/L, in the presence of 60 mmol/L tetraethylammonium): 1.00 ± 0.01 | K^+ current at HP: −20 mV, relative value (before compound = 1) ([1]; 5.0 × 10^−8 mol/L): 1.00 ± 0.01 | K^+ current at HP: −20 mV, relative value ([1]; 5.0 × 10^−9 mol/L, in the presence of 20 mmol/L tetraethylammonium): 0.99 ± 0.00 | K^+ current at HP: −20 mV, relative value (before compound = 1) ([1]; 5.0 × 10^−9 mol/L): 0.98 ± 0.02 | influence upon delayed rectifier K^+ currents ([1]; unidentified DRG cells, HP −20 mV): does not have no influences (little influences) | effect on micturition (physiological) contraction (spinal cord-injured rats): had no influence | effect on pre-micturition contraction (detrusor overactivity) (spinal cord-injured rats): inhibited | micturition contraction, relative to before administration = 100 (spinal cord-injured rats; 0.001 mg/kg p.o., after 1 hour): 106.5 ± 11.3% | pre-micturition contraction, relative to before administration = 100 (spinal cord-injured rats; 0.001 mg/kg p.o., after 1 hour): 83.5 ± 6.8% | micturition contraction, relative to before administration = 100 (spinal cord-injured rats; [2]): 101.7 ± 9.5% | pre-micturition contraction, relative to before administration = 100 (spinal cord-injured rats; [2]): 95.4 ± 12.0% | micturition contraction, relative to before administration = 100 (spinal cord-injured rats; [3]): 103.1 ± 6.5% | pre-micturition contraction, relative to before administration = 100 (spinal cord-injured rats; [3]): 105.5 ± 20.8% | micturition contraction, relative to before administration = 100 (spinal cord-injured rats; 0.01 mg/kg p.o., after 1 hour): 114.4 ± 9.5% | pre-micturition contraction, relative to before administration = 100 (spinal cord-injured rats; 0.01 mg/kg p.o., after 1 hour): 59.6 ± 8.1 % | micturition contraction, relative to before administration = 100 (spinal cord-injured rats; 0.01 mg/kg p.o., after 3 hours): 117.6 ± 13.9% | pre-micturition contraction, relative to before administration = 100 (spinal cord-injured rats; 0.01 mg/kg p.o., after 3 hours): 51.2 ± 6.7 % | micturition contraction, relative to before administration = 100 (spinal cord-injured rats; 0.01 mg/kg p.o., after 5 hours): 117.6 ± 12.7% | pre-micturition contraction, relative to before administration = 100 (spinal cord-injured rats; 0.01 mg/kg p.o., after 5 hours): 42.2 ± 7.2 % | micturition contraction, relative to before administration = 100 (spinal cord-injured rats; 0.1 mg/kg p.o., after 1 hour): 109.3 ± 6.3% | pre-micturition contraction, relative to before administration = 100 (spinal cord-injured rats; 0.1 mg/kg p.o., after 1 hour): 52.3 ± 9.1 % | micturition contraction, relative to before administration = 100 (spinal cord-injured rats; 0.1 mg/kg p.o., after 3 hours): 110.2 ± 5.4% | pre-micturition contraction, relative to before administration = 100 (spinal cord-injured rats; 0.1 mg/kg p.o., after 3 hours): 33.3 ± 6.3 % | micturition contraction, relative to before administration = 100 (spinal cord-injured rats; 0.1 mg/kg p.o., after 5 hours): 112.4 ± 7.0% | pre-micturition contraction, relative to before administration = 100 (spinal cord-injured rats; 0.1 mg/kg p.o., after 5 hours): 28.5 ± 6.2 %
